From PubChem BioAssay AID493102 (Broad Institute, 2011) come the findings set out here.

One may read the AC50 as the midpoint of the concentration-response curve, whichever way the signal moves.

The assay deals with SK-MEL-5 TRPM1-promoter luciferase reporter, 24 h. The experiment in a line: reducers of TRPM1 reporter luminescence, concentration series – cell-based, SK-MEL-5, cherry-picked, set 4, MITF inhibitor project, dose response (AID 493102).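 Further: actives lower the luciferase signal so the potency reflects inhibition of reporter expression.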

Consider `CCCOCc1ccc(O)c2ncccc12`, for which the AC50 is 15.5 µM.

As for `COc1ccc(C(=O)Nc2ccc(C)cn2)c(OC)c1`, the half-maximal activity concentration (AC50) was 3.7 µM.

Turning to `O=C1NC(=S)NC(=O)C1=Cc1cccn1-c1ccc(O)cc1`, the concentration at half-maximal activity (AC50) is 11.4 µM. Regarding `Cc1onc(-c2ccccc2)c1C(=O)N/N=C/c1ccc([N+](=O)[O-])s1`, the AC50 is 5.35 µM.

`CCOC(=O)C(=Cc1ccc(-n2ccnc2)cc1)C(=O)OCC`: the AC50 is 9.38 µM. The same measure for `O=C(C[n+]1cccc2ccccc21)c1ccc([N+](=O)[O-])cc1`: 6.21 µM.

Turning to `Cc1cc(C(=O)Nc2cccc(C(=O)O)c2)oc1C`, the AC50 is 4.35 µM. Take `Cc1[nH]c2ccccc2c1C(=O)CCl`: the AC50 was 6.78 µM. In the case of `O=C(N/N=C/c1cc([N+](=O)[O-])ccc1N1CCNCC1)c1ccc([N+](=O)[O-])cc1`, the half-maximal activity concentration (AC50) was 8.19 µM. As for `CN1CCN(c2ccc(NC(=S)NC(=O)c3cccc4ccccc34)cc2)CC1`, the AC50 is 9 µM. The same measure for `C/C(=N\NC(=O)C(C)Oc1ccc([N+](=O)[O-])cc1)c1ccccn1` (stereo not given): 2.39 µM; for `CCCCN1C=CC(=C2C(=O)c3ccccc3C2=O)C=C1`: 0.921 µM; for `CC[n+]1c(-c2ccccc2)c2cc(N)ccc2c2ccc(N)cc21`: 2.42 µM.

`CCc1ccc(NC2=CC(=O)C(=O)c3ccccc32)cc1`: the AC50 is 3.59 µM. The same measure for `CCCCCn1c(=O)c(C(=O)Nc2cnccn2)c(O)c2ccccc21`: 5.93 µM.

With `O=C(CCl)Nc1ccc(Sc2ccc(NC(=O)CCl)cc2)cc1`, the concentration at half-maximal activity (AC50) is 5.98 µM.

On to `O=C(/C=C/c1ccc([N+](=O)[O-])s1)N1CCCC1`, for which the AC50 is 9.86 µM.

Take `COc1ccc(N/N=C/c2c(C(=O)O)ccc3ccccc23)cc1`: the concentration at half-maximal activity (AC50) was 5.11 µM.

With `O=C(Nc1cccc(S(=O)(=O)N2CCCCC2)c1)c1ccc([N+](=O)[O-])o1`, the AC50 was 11.9 µM. On to `CC(C)(C)C(=O)/C(=C/c1ccncc1)n1cncn1`, for which the concentration at half-maximal activity (AC50) is 6.63 µM. The same measure for `CC(C)C1CC(CCNCc2ccc(N(C)C)cc2)(c2ccccc2)CCO1` (stereo not given): 11.1 µM.

For the compound `Cc1ccc(-c2c[n+](Cc3ccc(Cl)cc3)c3n2CCC3)cc1`, the AC50 was 14.2 µM. Consider `CCCCN(CC)CCCNC(=O)c1cc2c(=O)n(CC)c3ccccc3c2s1`, for which the AC50 is 21.6 µM.

In the case of `CCOc1ccc(-n2c(C)cc(C(=O)CCl)c2C)cc1`, the AC50 was 4.59 µM. Under `N#C/C(=C\C=C\c1ccccc1[N+](=O)[O-])C(=O)NCc1ccccc1` stands 14.7 µM. Under `CCC(=O)OCCNc1cc(Sc2nc3ccccc3[nH]2)c2nonc2c1[N+](=O)[O-]` stands 9.14 µM; under `O=C(N/N=C/c1ccc([N+](=O)[O-])s1)c1ccccc1`, 2.29 µM. Under `CCOC(=O)c1ccc(NC2=CC(=O)C(=O)c3ccccc32)cc1` stands 4.3 µM; under `O=C(c1nnsc1S(=O)(=O)c1ccc(Cl)cc1)N1CCOCC1`, 9.51 µM. With `O=C1c2ccccc2C(=O)c2c1ncn2-c1ccccc1`, the AC50 was 7.33 µM. With `CC(C)(C)C(=O)Nc1cc2nn(-c3ccccc3)nc2cc1Cl`, the AC50 was 0.495 µM.

As to `CS(=O)(=O)c1nc(-c2ccc(F)cc2)cc(C(F)(F)F)n1`, the AC50 is 7.2 µM.

Take `Cc1ccc2nc(NC(=O)CSCC(=O)OCC(=O)c3ccccc3)sc2c1`: the AC50 was 5.78 µM. The same measure for `CCN1/C(=C/c2cc[n+](C)cc2)C=Cc2cc(C)ccc21`: 1.74 µM; for `CCCOc1ccc(C(=O)C(CN2CCCC2)c2ccccc2)cc1` (stereo not given): 8.62 µM.

Consider `COc1ccc(-c2c[n+](CC(=O)OC3CC(C)CCC3C(C)C)c3n2CCC3)cc1` (stereo not given), for which the AC50 is 4.87 µM. As to `O=C1c2ccccc2S(=O)(=O)N1Cc1nc2ccccc2s1`, the AC50 is 2.7 µM. Take `O=C(c1ccccc1)C(CN1CCCC1)c1ccccc1` (stereo not given): the AC50 is 5.33 µM. The same measure for `O=C(N/N=C\c1cc(Br)ccc1O)c1ccc(S(=O)(=O)N2CCCCC2)cc1`: 1.78 µM.

With `OC(CNCC(c1ccc(Cl)cc1Cl)c1c[nH]c2ccccc12)c1ccccc1` (stereo not given), the concentration at half-maximal activity (AC50) is 14.7 µM. The same measure for `COc1ccc(C(=O)C(CN2CCCC2)c2ccccc2)cc1` (stereo not given): 9.13 µM. Take `C=CCC(Nc1ccccc1)C12C=CC(O1)C(C(=O)OC)=C2C(=O)OC` (stereo not given): the AC50 was 11.7 µM. Take `O=c1c2ccccc2nc(/C=C/c2ccc([N+](=O)[O-])o2)n1-c1ccc(O)cc1`: the AC50 is 4.45 µM. Under `O=C(O)c1cccc(N/N=C/c2cccs2)c1` stands 1.51 µM; under `NC(=O)C1CCN(C2=C(NS(=O)(=O)c3ccc(Br)cc3)C(=O)c3ccccc3C2=O)CC1`, 11.9 µM. Under `CCOc1ccccc1NC(=O)C(=O)N/N=C/c1cc(Br)ccc1O` stands 3.34 µM; under `O=C(O)c1ccc(Nc2nc3c(s2)CCCC3)cc1`, 6.49 µM; under `CC1(C(=O)N/N=C/c2ccc([N+](=O)[O-])o2)CC1(Br)Br` (stereo not given), 10.3 µM. The same measure for `COc1cccc(-c2csc3ncnc(Sc4nnnn4C)c23)c1`: 25 µM; for `CCCCN1CCc2c1nc1ccc(Br)cc1c2N`: 12.2 µM; for `COc1cccc(C(=O)Oc2c(CN3CCOCC3)cc(Cl)c3cccnc23)c1`: 9.89 µM. As for `CCOCCCNC(=O)/C(C#N)=C/c1ccc(Cl)c([N+](=O)[O-])c1`, the AC50 was 7.38 µM. Under `CC(C)C(=O)N1CCN(c2ccc(NC(=O)c3ccc([N+](=O)[O-])o3)cc2)CC1` stands 7.98 µM; under `C=CCN1C(=O)NC(=O)/C(=C/C=C/c2ccccc2)C1=O`, 5.94 µM.

On to `Cc1cc(C)cc(N2C(=O)NC(=O)/C(=C\c3cccn3-c3ccccc3)C2=O)c1`, for which the AC50 was 13.8 µM. With `O=C(C#Cc1ccccc1)c1cccc([N+](=O)[O-])c1`, the AC50 was 3.62 µM. On to `Cc1scc(C(=O)N/N=C/c2ccc([N+](=O)[O-])o2)c1C`, for which the AC50 was 2.19 µM. Under `OCC1OC(n2cnc3c(NCc4ccco4)ncnc32)C(O)C1O` (stereo not given) stands 3.88 µM. Under `CC(=O)CSc1ccc(-c2nc3cc(C)c(C)cc3[nH]2)cn1` stands 3.67 µM. Under `Cc1ccc2nc3cc([N+](=O)[O-])cc([N+](=O)[O-])c3cc2c1` stands 8.46 µM. `Cc1ccc(/C=N/Nc2ccc(C(=O)O)cc2)s1`: the AC50 is 3.3 µM. `CCOC(=O)c1ccc(NC(=O)c2nc(S(=O)(=O)Cc3ccccc3)ncc2Cl)cc1`: the AC50 is 9.92 µM.

For `Nc1nc2n[nH]nc2c(=O)[nH]1`, the AC50 is 0.875 µM. The same measure for `CCN(CC)S(=O)(=O)c1cccc(C(=O)N/N=C/c2ccc([N+](=O)[O-])o2)c1`: 14.1 µM; for `Clc1cccc(-c2nc(-c3ccccn3)no2)c1`: 5.92 µM; for `CC(C)c1oc(=O)cc2c1[C@@H](O)[C@H]1OC(=O)[C@@]3(C)C[C@@H](O)[C@@H](O)[C@@]2(C)C13` (stereo not given in full): 1.63 µM.

On to `Cc1cnc(NC(=O)c2nn(C)cc2[N+](=O)[O-])s1`, for which the AC50 was 20.6 µM. Under `CCOC(=O)N1CCN(C(=O)c2ccc(Cn3c(=S)[nH]c4ccc(Br)cc4c3=O)cc2)CC1` stands 3.52 µM. The same measure for `CC(/C=C1\SC(=O)N(CCCC(=O)O)C1=O)=C\c1ccccc1`: 2.36 µM. Under `COc1cc(NC(=O)COc2cc(O)c3c(c2)OC(C)(C)CC3=O)cc(OC)c1OC` stands 5.36 µM. As for `C#CCCc1ccccc1/C=[N+](/C)[O-]`, the AC50 is 9.4 µM. The same measure for `O=C(c1ccc([N+](=O)[O-])s1)N1CCCc2ccccc21`: 11.2 µM; for `Cn1c(SCC(=O)N/N=C/c2ccc([N+](=O)[O-])s2)nnc1-c1ccccc1`: 4.28 µM; for `Cc1ccc(C(=O)N/C(=C\c2ccc(-c3ccccc3[N+](=O)[O-])o2)C(=O)NCCN(C)C)cc1`: 4.87 µM. The same measure for `CC(C)(C)c1ccc(C(=O)Nc2sc3c(c2C(=O)O)CCC3)cc1`: 2.09 µM; for `C=CCN=C1NN=C(c2ccc3c(c2)OCCO3)CS1`: 3.37 µM.

As to `COc1cccc(N2CCN(C(=O)c3ccc(CS(=O)c4ccccc4Cl)o3)CC2)c1` (stereo not given), the AC50 is 0.894 µM. Under `Cc1c(Cl)c([N+](=O)[O-])nn1Cc1ccc(C(=O)N/N=C\c2cc(Cl)ccc2O)o1` stands 3.47 µM. Turning to `FC(F)(F)c1cc(CCN2CCNC[C@@H]2Cc2ccccc2)cc(C(F)(F)F)c1`, the AC50 is 12.3 µM. Take `Cc1cc(C)cc(N2C(=O)NC(=O)/C(=C\C=C\c3ccco3)C2=O)c1`: the AC50 is 4.88 µM. The same measure for `CCOc1ccc(-c2ccc(SC)nn2)cc1`: 5.17 µM; for `Nc1nnnn1/N=C/C(Br)=C/c1ccccc1`: 5.44 µM; for `CCOc1ccc(/C=C2\SC(=S)N(CCC(=O)O)C2=O)cc1`: 0.577 µM. Take `CC1CCCCC1NC(=O)/C(C#N)=C/c1ccccc1F` (stereo not given): the AC50 was 14.4 µM. The same measure for `COc1ccc2nc(C)cc(SCC(=O)N/N=C/c3ccc(O)cc3O)c2c1`: 10.1 µM; for `COc1cc(SC)ccc1C(=O)Nc1nc(C)cs1`: 4.81 µM; for `C/C(=N\NC(=O)C(c1ccccc1)c1ccccc1)c1ccccn1`: 5.96 µM. The same measure for `Cn1nnnc1Sc1ncnc2scc(-c3cccs3)c12`: 7 µM. `CC(C)(C)c1ccc(C(=O)N2CCCCCC2=O)cc1`: the AC50 is 1.12 µM. In the case of `O=C(CCl)N(Cc1cc(=O)[nH]c2ccccc12)c1ccccc1`, the half-maximal activity concentration (AC50) is 5.42 µM. For `CCCCn1c(=N)n(CCOc2ccc(C)cc2)c2ccccc21`, the AC50 was 11.3 µM. Under `Cc1c(NC(=O)C(C)OC(=O)c2ccc([N+](=O)[O-])s2)c(=O)n(-c2ccccc2)n1C` (stereo not given) stands 34.1 µM; under `O=C(Nc1ccccc1N1CCN(C(=O)c2ccccc2)CC1)c1ccc([N+](=O)[O-])o1`, 11.4 µM; under `CCN1CCN(c2ccc(NC(=O)c3ccc([N+](=O)[O-])o3)cc2Cl)CC1`, 9.54 µM. Turning to `COc1cc(SC)ccc1C(=O)Nc1ccc(Br)cn1`, the AC50 is 7.36 µM. Under `N#C/C(=C\C=C\c1ccccc1[N+](=O)[O-])C(=O)NC1CCCCC1` stands 7.8 µM; under `Cc1ccccc1C(=O)N1CCN(c2ccc(NC(=O)c3ccc([N+](=O)[O-])o3)cc2)CC1`, 6.2 µM; under `Cc1ccc(C(=O)Nc2cnc3ccccc3c2)cc1`, 1.15 µM.

Consider `O=C(Nc1ccccc1N1CCOCC1)c1ccc([N+](=O)[O-])o1`, for which the AC50 was 11.9 µM. On to `N#C/C(=C\c1ccc(OCc2ccc(C(=O)O)cc2)cc1)C(=O)N1CCOCC1`, for which the AC50 was 1.19 µM.
